In patent US11059834B2, “Macrocyclic immunomodulators” (CHEMOCENTRYX, INC., priority 2017, dated 2021):

Target: human PD-L1 / Human PD-1 (Homo sapiens (Human), UniProt Q9NZQ7)
Experiment: Enzyme-Linked Immunosorbent Assay (ELISA), PD-1/PD-L1 binding
Conditions: plate-coated human PD-L1, biotinylated human PD-1, absorbance at 450 nm
Experimental: 96 Well plates were coated with 1 μg/mL of human PD-L1 (obtained from R&D) in PBS overnight at 4° C. The wells were then blocked with 2% BSA in PBS (W/V) with 0.05% TWEEN-20 for 1 hour at 37° C. The plates were washed 3 times with PBS/0.05% TWEEN-20 and the compounds were serial diluted (1:5) in dilution medium and added to the ELISA plates. Human PD-1 and biotin 0.3 μg/mL (ACRO Biosystems) were added and incubated for 1 hour at 37° C. then washed 3 times with PBS/0.05% TWEEN-20. A second block was performed with 2% BSA in PBS (W/V)/0.05% TWEEN-20 for 10 min at 37° C. and was washed 3 times with PBS/0.05% TWEEN-20. Streptavidin—HRP was added for 1 hour at 37° C. then washed 3 times with PBS/0.05% TWEEN-20. TMB substrate was added and reacted for 20 min at 37° C. A stop solution (2 N aqueous H2SO4) was added. The absorbance was read at 450 nm using a micro-plate spectrophotometer.
Compounds in Table 1 were prepared by methods as described in the Examples and evaluated according to the assay above.

Chain of human PD-L1 / Human PD-1 (Q9NZQ7 19-239): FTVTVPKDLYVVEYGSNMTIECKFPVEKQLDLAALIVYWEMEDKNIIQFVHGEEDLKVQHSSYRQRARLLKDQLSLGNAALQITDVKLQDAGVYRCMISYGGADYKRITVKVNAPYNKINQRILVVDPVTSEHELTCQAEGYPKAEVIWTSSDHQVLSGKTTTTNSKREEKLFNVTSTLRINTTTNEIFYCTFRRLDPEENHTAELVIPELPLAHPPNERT

## Cc1c(COc2cc3c(cc2Cl)CO[C@H](C(=O)O)CCNC(=O)c2cncc(c2)CN3)cccc1-c1ccccc1 [Compound 1.009]
  IC50: 0.5 to 20 µM
